# Assays:
# Type in all cases: ADME
# [1] = (§1) The drug is tested on Lactobacillus fermentum strain: DSM20052 for biotransformation under microaerobic condition. The drug concentrations were measured over 6 timepoints collected between 0 and 12 hours of incubation by liquid-chromatography-coupled mass spectrometry (LC–MS); design: dose 5 uM, timepoint 0, 1.5, 3, 6, 9, 12 hours; conditions: limosilactobacillus fermentum, 5 µM
# [2] = (§2) The drug is tested on Streptococcus mitis strain: DSM12643 for biotransformation under anaerobic condition. The drug concentrations were measured over 6 timepoints collected between 0 and 12 hours of incubation by liquid-chromatography-coupled mass spectrometry (LC–MS); design: dose 5 uM, timepoint 0, 1.5, 3, 6, 9, 12 hours; conditions: 5 µM
# [3] = The drug is tested on Clostridium scindens strain: DSM5676 for biotransformation under anaerobic condition. The drug concentrations were measured over 6 timepoints collected between 0 and 12 hours of incubation by liquid-chromatography-coupled mass spectrometry (LC–MS); design: dose 5 uM, timepoint 0, 1.5, 3, 6, 9, 12 hours; conditions: 5 µM
# [4] = as §2, with “the gut metagenome community of T-02 with ENA study accession number: PRJEB31790” for “Streptococcus mitis strain: DSM12643”, “7” for “6”; design: dose 5 uM, timepoint 0, 0.75, 1.5, 3, 6, 9, 12 hours; conditions: 5 µM
# [5] = as §1, with “the gut metagenome community of P-01 with ENA study accession number: PRJEB31790” for “Lactobacillus fermentum strain: DSM20052”, “7” for “6”; design: dose 5 uM, timepoint 0, 0.75, 1.5, 3, 6, 9, 12 hours; conditions: 5 µM
# [6] = The drug is tested on Bacteroides stercoris strain: HM 1036 for biotransformation under anaerobic condition. The drug concentrations were measured over 6 timepoints collected between 0 and 12 hours of incubation by liquid-chromatography-coupled mass spectrometry (LC–MS); design: dose 5 uM, timepoint 0, 1.5, 3, 6, 9, 12 hours; conditions: 5 µM
# [7] = as §1, with “the gut metagenome community of P-03 with ENA study accession number: PRJEB31790” for “Lactobacillus fermentum strain: DSM20052”, “7” for “6”; design: dose 5 uM, timepoint 0, 0.75, 1.5, 3, 6, 9, 12 hours; conditions: 5 µM
# [8] = as §2, with “the gut metagenome community of A-08 with ENA study accession number: PRJEB31790” for “Streptococcus mitis strain: DSM12643”, “7” for “6”; design: dose 5 uM, timepoint 0, 0.75, 1.5, 3, 6, 9, 12 hours; conditions: 5 µM
# [9] = The drug is tested on Parabacteroides merdae strain: DSM19495 for biotransformation under anaerobic condition. The drug concentrations were measured over 6 timepoints collected between 0 and 12 hours of incubation by liquid-chromatography-coupled mass spectrometry (LC–MS); design: dose 5 uM, timepoint 0, 1.5, 3, 6, 9, 12 hours; conditions: 5 µM
# [10] = as §2, with “the gut metagenome community of T-03 with ENA study accession number: PRJEB31790” for “Streptococcus mitis strain: DSM12643”, “7” for “6”; design: dose 5 uM, timepoint 0, 0.75, 1.5, 3, 6, 9, 12 hours; conditions: 5 µM
# [11] = The drug is tested on Eubacterium eligens strain: DSM3376 for biotransformation under anaerobic condition. The drug concentrations were measured over 6 timepoints collected between 0 and 12 hours of incubation by liquid-chromatography-coupled mass spectrometry (LC–MS); design: dose 5 uM, timepoint 0, 1.5, 3, 6, 9, 12 hours; conditions: lachnospira eligens, 5 µM
# [12] = The drug is tested on Lactobacillus gasseri strain: DSM20243 for biotransformation under anaerobic condition. The drug concentrations were measured over 6 timepoints collected between 0 and 12 hours of incubation by liquid-chromatography-coupled mass spectrometry (LC–MS); design: dose 5 uM, timepoint 0, 1.5, 3, 6, 9, 12 hours; conditions: 5 µM
# [13] = as §1, with “the gut metagenome community of A-06 with ENA study accession number: PRJEB31790” for “Lactobacillus fermentum strain: DSM20052”, “7” for “6”; design: dose 5 uM, timepoint 0, 0.75, 1.5, 3, 6, 9, 12 hours; conditions: 5 µM
# [14] = The drug is tested on Bifidobacterium adolescentis strain: DSM20083 for biotransformation under anaerobic condition. The drug concentrations were measured over 6 timepoints collected between 0 and 12 hours of incubation by liquid-chromatography-coupled mass spectrometry (LC–MS); design: dose 5 uM, timepoint 0, 1.5, 3, 6, 9, 12 hours; conditions: 5 µM
# [15] = The drug is tested on Prevotella copri strain: DSM18205 for biotransformation under anaerobic condition. The drug concentrations were measured over 6 timepoints collected between 0 and 12 hours of incubation by liquid-chromatography-coupled mass spectrometry (LC–MS); design: dose 5 uM, timepoint 0, 1.5, 3, 6, 9, 12 hours; conditions: segatella copri, 5 µM
# [16] = The drug is tested on Coprococcus comes strain: ATCC27758 for biotransformation under anaerobic condition. The drug concentrations were measured over 6 timepoints collected between 0 and 12 hours of incubation by liquid-chromatography-coupled mass spectrometry (LC–MS); design: dose 5 uM, timepoint 0, 1.5, 3, 6, 9, 12 hours; conditions: 5 µM
# [17] = The drug is tested on Lactobacillus ruminis strain: ATCC25644 for biotransformation under microaerobic condition. The drug concentrations were measured over 6 timepoints collected between 0 and 12 hours of incubation by liquid-chromatography-coupled mass spectrometry (LC–MS); design: dose 5 uM, timepoint 0, 1.5, 3, 6, 9, 12 hours; conditions: ligilactobacillus ruminis, 5 µM
# [18] = The drug is tested on Streptococcus sanguinis strain: DSM20567 for biotransformation under microaerobic condition. The drug concentrations were measured over 6 timepoints collected between 0 and 12 hours of incubation by liquid-chromatography-coupled mass spectrometry (LC–MS); design: dose 5 uM, timepoint 0, 1.5, 3, 6, 9, 12 hours; conditions: 5 µM
# [19] = as §1, with “the gut metagenome community of T-01 with ENA study accession number: PRJEB31790” for “Lactobacillus fermentum strain: DSM20052”, “7” for “6”; design: dose 5 uM, timepoint 0, 0.75, 1.5, 3, 6, 9, 12 hours; conditions: 5 µM
# [20] = The drug is tested on Capnocytophaga ochracea strain: DSM7271 for biotransformation under microaerobic condition. The drug concentrations were measured over 6 timepoints collected between 0 and 12 hours of incubation by liquid-chromatography-coupled mass spectrometry (LC–MS); design: dose 5 uM, timepoint 0, 1.5, 3, 6, 9, 12 hours; conditions: 5 µM
# [21] = as §1, with “the gut metagenome community of A-05 with ENA study accession number: PRJEB31790” for “Lactobacillus fermentum strain: DSM20052”, “7” for “6”; design: dose 5 uM, timepoint 0, 0.75, 1.5, 3, 6, 9, 12 hours; conditions: 5 µM
# [22] = as §1, with “the gut metagenome community of A-10 with ENA study accession number: PRJEB31790” for “Lactobacillus fermentum strain: DSM20052”, “7” for “6”; design: dose 5 uM, timepoint 0, 0.75, 1.5, 3, 6, 9, 12 hours; conditions: 5 µM
# [23] = The drug is tested on Alloscardovia omnicolens strain: DSM21503 for biotransformation under microaerobic condition. The drug concentrations were measured over 6 timepoints collected between 0 and 12 hours of incubation by liquid-chromatography-coupled mass spectrometry (LC–MS); design: dose 5 uM, timepoint 0, 1.5, 3, 6, 9, 12 hours; conditions: 5 µM
# [24] = as §2, with “the gut metagenome community of A-04 with ENA study accession number: PRJEB31790” for “Streptococcus mitis strain: DSM12643”, “7” for “6”; design: dose 5 uM, timepoint 0, 0.75, 1.5, 3, 6, 9, 12 hours; conditions: 5 µM
# [25] = as §1, with “the gut metagenome community of T-05 with ENA study accession number: PRJEB31790” for “Lactobacillus fermentum strain: DSM20052”, “7” for “6”; design: dose 5 uM, timepoint 0, 0.75, 1.5, 3, 6, 9, 12 hours; conditions: 5 µM
# [26] = The drug is tested on Bacteroides caccae strain: DSM19024 for biotransformation under anaerobic condition. The drug concentrations were measured over 6 timepoints collected between 0 and 12 hours of incubation by liquid-chromatography-coupled mass spectrometry (LC–MS); design: dose 5 uM, timepoint 0, 1.5, 3, 6, 9, 12 hours; conditions: 5 µM
# [27] = The drug is tested on Actinomyces naeslundi strain: DSM43013 for biotransformation under microaerobic condition. The drug concentrations were measured over 6 timepoints collected between 0 and 12 hours of incubation by liquid-chromatography-coupled mass spectrometry (LC–MS); design: dose 5 uM, timepoint 0, 1.5, 3, 6, 9, 12 hours; conditions: actinomyces naeslundii, 5 µM
# [28] = The drug is tested on Dorea formicigenerans strain: DSM3992 for biotransformation under anaerobic condition. The drug concentrations were measured over 6 timepoints collected between 0 and 12 hours of incubation by liquid-chromatography-coupled mass spectrometry (LC–MS); design: dose 5 uM, timepoint 0, 1.5, 3, 6, 9, 12 hours; conditions: 5 µM
# [29] = The drug is tested on Enterococcus faecalis strain: ATCC29212 for biotransformation under anaerobic condition. The drug concentrations were measured over 6 timepoints collected between 0 and 12 hours of incubation by liquid-chromatography-coupled mass spectrometry (LC–MS); design: dose 5 uM, timepoint 0, 1.5, 3, 6, 9, 12 hours; conditions: 5 µM
# [30] = as §1, with “the gut metagenome community of A-07 with ENA study accession number: PRJEB31790” for “Lactobacillus fermentum strain: DSM20052”, “7” for “6”; design: dose 5 uM, timepoint 0, 0.75, 1.5, 3, 6, 9, 12 hours; conditions: 5 µM
SMILES,Bacterial Biotransformation [1],Bacterial Biotransformation [2],Bacterial Biotransformation [3],Bacterial Biotransformation [4],Bacterial Biotransformation [5],Bacterial Biotransformation [6],Bacterial Biotransformation [7],Bacterial Biotransformation [8],Bacterial Biotransformation [9],Bacterial Biotransformation [10],Bacterial Biotransformation [11],Bacterial Biotransformation [12],Bacterial Biotransformation [13],Bacterial Biotransformation [14],Bacterial Biotransformation [15],Bacterial Biotransformation [16],Bacterial Biotransformation [17],Bacterial Biotransformation [18],Bacterial Biotransformation [19],Bacterial Biotransformation [20],also measured
C[C@H]1C[C@H]2[C@@H]3CCC4=CC(=O)C=C[C@]4(C)[C@@]3(F)[C@@H](O)C[C@]2(C)[C@@]1(O)C(=O)CO [BETAMETHASONE],Compound NOT metabolized,Compound NOT metabolized,Compound metabolized,Compound metabolized,Compound NOT metabolized,Compound NOT metabolized,Compound NOT metabolized,Compound metabolized,Compound NOT metabolized,Compound NOT metabolized,Compound NOT metabolized,Compound NOT metabolized,Compound NOT metabolized,Compound NOT metabolized,Compound NOT metabolized,Compound NOT metabolized,Compound NOT metabolized,Compound NOT metabolized,Compound NOT metabolized,Compound NOT metabolized,Bacterial Biotransformation [21]: Compound NOT metabolized; Bacterial Biotransformation [22]: Compound NOT metabolized; Bacterial Biotransformation [23]: Compound NOT metabolized; Bacterial Biotransformation [24]: Compound metabolized; Bacterial Biotransformation [25]: Compound NOT metabolized; Bacterial Biotransformation [26]: Compound NOT metabolized; Bacterial Biotransformation [27]: Compound NOT metabolized; Bacterial Biotransformation [28]: Compound NOT metabolized; Bacterial Biotransformation [29]: Compound NOT metabolized; Bacterial Biotransformation [30]: Compound metabolized
CCCC1O[C@@H]2C[C@H]3[C@@H]4CCC5=CC(=O)C=C[C@]5(C)[C@H]4[C@@H](O)C[C@]3(C)[C@]2(C(=O)CO)O1 (stereo not given in full) [BUDESONIDE],Compound NOT metabolized,Compound NOT metabolized,Compound NOT metabolized,Compound NOT metabolized,Compound NOT metabolized,Compound NOT metabolized,Compound NOT metabolized,Compound metabolized,Compound NOT metabolized,Compound NOT metabolized,Compound NOT metabolized,Compound NOT metabolized,Compound metabolized,Compound NOT metabolized,Compound NOT metabolized,Compound NOT metabolized,Compound NOT metabolized,Compound NOT metabolized,Compound metabolized,Compound NOT metabolized,Bacterial Biotransformation [21]: Compound metabolized; Bacterial Biotransformation [22]: Compound metabolized; Bacterial Biotransformation [23]: Compound NOT metabolized; Bacterial Biotransformation [24]: Compound NOT metabolized; Bacterial Biotransformation [25]: Compound NOT metabolized; Bacterial Biotransformation [26]: Compound NOT metabolized; Bacterial Biotransformation [27]: Compound NOT metabolized; Bacterial Biotransformation [28]: Compound NOT metabolized; Bacterial Biotransformation [29]: Compound NOT metabolized; Bacterial Biotransformation [30]: Compound metabolized
